Our source for the Clin values is PMC10945555, “Improving Activity of New Arylurea Agents against Multidrug-Resistant and Biofilm-Producing Staphylococcus epidermidis” (ACS Medicinal Chemistry Letters, 2024).

The data set is described as follows: Microsomal stability assay. Particulars: RLM, 60 min of incubation. The protocol:
were treated with 100 μL of tested compound at the final concentration of 200 μM, and incubated at 37 °C for 1 h. Triton X-100 (2%) and PBS were used as positive and negative controls, respectively. After centrifugation at 3000 rpm for 3 min, 100 μL of the supernatants were transferred to a 96 well microtiter plate and the hemoglobin release was determined in a SpectraMax iD3 reader (Molecular Devices) by absorption at 540 nm.
2.3.4 Microsomal stability assay […]
following previously reported procedures.7 Tested compound was preincubated at 37 °C in a phosphate buffer (pH 7.4), containing rat liver microsomes (Sigma-Aldrich, Germany), at the concentration of 0.4 mg/mL. After 10 min, NADPH-regenerating system was added to initiate the reaction. At appropriate time points (0, 30 and 60 min), reaction was quenched with ice-cold methanol, containing the internal standard pentoxiphylline. Next samples were centrifuged and the supernatant was subjected to UPLC-MS analysis. From slope of the line on plot Ln (%remaining of parent compounds) vs time, t1/2 was determined. Clint was calculated from […]
experiment was run in duplicate. The metabolized drug verapamil was used as positive control […]
provided by Molecular Discovery Ltd. (Hertfordshire, UK). A highest probability of metabolic sites and metabolite structures were analysed by liver computational model. 8 […]

The molecule `O=C(Nc1cccc(Cl)c1)NC1CCN(CCC(Oc2ccc(C(F)(F)F)cc2)c2cccs2)CC1` (stereo not shown) [Compound 25] yielded a Clin of 26.7.
